Measured values as given in US20090258836A1, “EFFECTIVE DELIVERY OF CROSS-SPECIES A3 ADENOSINE-RECEPTOR ANTAGONISTS TO REDUCE INTRAOCULAR PRESSURE” (The Trustees of The University of Pennsylvania, priority 2006, published 2009).
“Also recorded” adds a separate entry of the source.

Key:
[1] = tested on: HCE (human ciliary epithelial) cell line, NPE cells; assay: Cell volume in isosmotic solution (isosmotic shrinkage), Coulter Counter; type: cell-based
Protocol: Cell Culture The HCE (human ciliary epithelial) cell line (Carre et al., supra, 1997) is an immortalized NPE cell line obtained from primary cultures of adult human epithelium. […] Eye Res. 57:3057-3063 (1993); Yantorno et al., Exp. Eye Res. 49:423-437 (1989)). […] Cells were passaged every 6-7 days and were studied 8-13 days after passage, after reaching confluence. An immortalized PE-cell line from a primary culture of bovine pigmented ciliary epithelium were also grown under matching conditions. Measurement of Cell Volume in Isosmotic Solution: The volume of PE and NPE cells was measured, since the movement of fluid underlies a change in PE and NPE cell volume, respectively. This is also thought to be the same as the movement of fluid which underlines the secretion of aqueous humor (FIG. 1). […] Parallel aliquots of cells were studied on the same day. One aliquot usually served as a control, and the others were exposed to different experimental conditions at the time of suspension. The same amount of solvent vehicle (dimethylformamide, DMSO or ethanol) was always added to the control and experimental aliquots. […] Cell volumes of isosmotic suspensions were measured with a Coulter Counter (model ZBI-Channelyzer II), using a 100 μm aperture (Civan et al., supra, 1994). As previously described (Wax et al., supra, 1993), the cell volume (vC) of the suspension was taken as the peak of the distribution function. Cell shrinkage was fit as a function of time (t) to a monoexpenential function: […]^0^)/τ] {1) where v∞ is the steady-state cell volume, v0 is the cell volume at the first point (t0) of the time course to be fit, and τ is the time constant of the shrinkage. For purposes of data reduction, the data were normalized to the first time point, taken to be 100% isotonic volume. Fits were obtained by nonlinear least-squares regression analysis, permitting both v∞ and τ to be variables. […] Med. Chem. 37:636-646 (1994; Jacobson et al., supra, 1995; Jacobson et al., FEBS Lett. 336:57-60 (1993)).

mouse IOP [2] = assay: Mouse IOP after topical application, non-invasive pneumotonometry; type: in vivo, Black Swiss mice; details: for Δ(IOP) Pneumotonometer: topical droplets 200 nM (1% DMSO), 30 min
Protocol: (§1) The test animals were black Swiss outbred mice of mixed sex, 7-9 weeks old and 25-30 g in weight, obtained from Taconic Inc. (Germantown, N.Y.), and maintained under 12:12-h light/dark illumination cycle and allowed unrestricted access to food and water. Mice were anesthetized with intraperitoneal ketamine ([…]) supplemented by topical proparacaine HCl 0.5% (Allergan, Bausch & Lomb) for the IOP measurements. IOP was measured invasively (SNMS) and non-invasively by pneumotonometry in separate animals.
By comparison, IOP was measured non-invasively by pneumotonometry (OBT) (Avila et al., supra, 2005). As previously described, the commercially available tip of the ocular blood tomography (OBT) pneumotonometer (Blood Flow Analyzer [BFA] probe tip; Paradigm Medical Industries Inc.) was fit to a custom-built mount. Air flow from a constant pressure source was passed through the mount to reach a diaphragm forming the end of the BFA tip. The flow of air displaces the diaphragm outward, permitting escape of the air through holes in the wall of the probe tip into the atmosphere. Pressure was monitored with a transducer connected through a T-connection to the base of the BFA tip. The probe assembly was advanced to the cornea with a three-axis micromanipulator. The probe tip was advanced sufficiently to make contact with the tear film, as was indicated by a shift in the baseline output reading. In a refined method, the tip was withdrawn until the […] was visually displaced from the tear film. The output was then adjusted to zero before advancing the tip again. Contact with the cornea depresses the diaphragm of the BFA tip, occluding access of the air flow to the escape holes and raising the pressure at the base of the tip.
This approach was simplified to expedite identification of the endpoint, and the probe was subsequently advanced in about 10 standardized steps of approximately […] at intervals of about 10 seconds to identify the inflection region (Wang et al., supra, 2006). […] The pneumotonometric estimates of IOP were previously found to agree with manometric measurements in cannulated preparations and with estimates obtained by the servo-null technique (Avila et al., supra, 2005). Having established the baseline value of IOP, the position along the axis of advance of the micromanipulator was noted, and the probe was retracted from contact with the cornea. Subsequent measurements of IOP at later time points were obtained by advancing the probe tip to the same position, with the placement of the mouse maintained stereotactically. The measurements were conducted at 10-min intervals to avoid potential artifacts associated with prolonged pressure on the cornea.
(§2) Ketamine HCl was purchased from Phoenix Pharmaceutical Inc. (St. Joseph, Mo.). Other drugs were obtained from Sigma Chemical (St. Louis, Mo.). Drugs were applied topically with an Eppendorf pipette. […] The final droplet solution contained the drugs at the stated concentrations together with <2% DMSO and 0.0005% benzalkonium chloride at an osmolality of 295-300 mOsm. DMSO was omitted, altogether, from droplets containing the hydrophilic compounds adenosine, carbachol and carboxyfluorescein.
(§3) Effects on invasively-measured IOP were measured 10 min after topical application because after this time, the continued presence of the micropipette can be associated with a downward drift of the IOP, even under control conditions. In contrast, smaller droplets ([…]) were applied to the eye more frequently (three times instead of once) with the non-invasive technique, in order to forestall drying of the eye associated with the airflow from the pneumotonometer. With the non-invasive protocol, the IOP was stable for 30 min under control conditions.
In Table 1, an endpoint of 10 minutes was used for the invasive measurements in light of the above-discussed downward drift of the IOP, even under control conditions. […]

mouse IOP [3] = assay: Mouse IOP after topical application, invasive servo-null micropipette system (SNMS); type: in vivo, Black Swiss mice
Protocol: as §1
By the SNMS approach (Avila et al., supra, 2001), the exploring micropipette, of […] outer diameter, was filled with a highly conducting solution and advanced across the cornea into the anterior chamber. A refined technique by Wang et al., Invest. Opthalmol. Vis. Sci. (serial online) (Aug. 31, 2006) available at www.iovs.org/egi/letters/46/9/3274#422, enhanced stability and reduce the background noise of the records, permitting fabrication of micropipettes whose resistance is 0.1-0.3 MΩ, rather than the 0.25-0.4 MΩ used initially. The filling solution was reduced from 3M KCl to 2M NaCl, rather than 3 M KCl. The resistance of the filled micropipette was balanced in a bridge circuit, and the tip was then advanced across the cornea. Upon entering the anterior chamber of the eye, the IOP forces the much lower-conducting aqueous humor into the micropipette tip, displacing the original filling solution. The micropipette resistance was thereby increased, unbalancing the bridge circuit and triggering a bellows to provide a counter-pressure, restoring the position of the filling solution and returning the resistance to its initial value. Thus, the value of the counter-pressure equals the IOP. As in the past (Avila et al., supra, 2001), the stability of the records permitted continuous measurements for tens of minutes during the course of drug applications.
as §2, §3
In Table 1, an endpoint of 10 minutes was used for the invasive measurements in light of the above-discussed downward drift of the IOP, even under control conditions. Also the need for smaller, more frequent droplets are discussed above with regard to the non-invasive technique using the pneumotonometer. As above, with the non-invasive protocol, the IOP was stable for 30 minutes under control conditions.

mouse IOP [4] = assay: Mouse IOP monitored with SNMS, protocols of Yang et al. 2005; type: in vivo
Protocol: Pharmacol. 65:1675-1684 (2003)), is effective both in blocking adenosine-triggered shrinkage of cultured human NPE cells and in lowering IOP of mice (Yang et al., supra, 2005). MRS-1292 was tested on the mouse for two reasons. Transgenic mice provide a convenient opportunity for studying the molecular physiology and pharmacology in the living animal ([…] al., supra, 2003). Second, measurement of IOP permitted us to assess the effects of MRS-1292 on the target parameter. […] Therefore, to directly assess the effect of MRS-1292 in vivo in the mouse, IOP was monitored before and after drug application. IOP was monitored with the Servo-Null-Micropipette System (SNMS). The test protocols are described in detail by Yang et al. supra, 2005, herein incorporated by reference. […] In comparison, addition of the same volume of saline at the same osmolality produced no significant change in IOP (-0.3±1.2 mmHg, n=6, p>0.8) 14 min later. […] To estimate an approximate range, “penetrance” was defined by Yang et al. as the ratio of the published Ki value at receptors in vitro to the minimally effective droplet concentration, for a number of adenosine agonists and antagonists. Thus, penetrance ranges from 1:100 to 1:1000 for purinergic drugs that have been tested in the mouse, and it is not very different from the drug penetrance of 1:100 for agents applied topically to rabbits and primates. This rule of thumb also applies to acylguanidine blockers and bumetanide, whose topical effects have also been studied in the mouse eye. Thus, the approximately 1:1000 penetrance that Yang et al. reported in the 2003 citation for MRS 1292 in the present experiments is consistent with past studies

cultured human NPE cells = details: cited from earlier work
human A2A receptors = human A2A receptors (Homo sapiens, UniProt P29274); details: literature; read-out: Ki for the binding to human A2A receptors; cited from earlier work
pupil size = assay: Pupil diameter after topical carbachol with or without corneal impalement; type: in vivo, mouse
Protocol: as §1
To measure pupil diameter, the pupil and an adjacent ruler having 1-mm graticules were imaged with a digital camera. Care was taken to avoid applying mechanical stress, and consequently to avoid displacing the micropipette tip from its position in the anterior chamber. Lengths were measured by IMAGE J (National Institutes of Health) and the pupil diameters were calibrated to the ruler.
Pupillary diameter was measured before and 10 min after topical addition of […] containing 40 mM ([…]) of the miotic carbachol to both eyes of the mouse. One eye was not punctured; the other eye was impaled with the SNMS micropipette. Either the right or left eye of each mouse was chosen randomly for impalement. At so low a topical concentration and in the absence of a micropipette, exposure to carbachol for 10 min had no significant effect on pupillary size. The baseline diameter was 1.80±0.11, and was insignificantly changed by carbachol application, increasing by 0.12±0.17 mm (n=6, P>0.4).

Chain of human A2A receptors (P29274 whole entry): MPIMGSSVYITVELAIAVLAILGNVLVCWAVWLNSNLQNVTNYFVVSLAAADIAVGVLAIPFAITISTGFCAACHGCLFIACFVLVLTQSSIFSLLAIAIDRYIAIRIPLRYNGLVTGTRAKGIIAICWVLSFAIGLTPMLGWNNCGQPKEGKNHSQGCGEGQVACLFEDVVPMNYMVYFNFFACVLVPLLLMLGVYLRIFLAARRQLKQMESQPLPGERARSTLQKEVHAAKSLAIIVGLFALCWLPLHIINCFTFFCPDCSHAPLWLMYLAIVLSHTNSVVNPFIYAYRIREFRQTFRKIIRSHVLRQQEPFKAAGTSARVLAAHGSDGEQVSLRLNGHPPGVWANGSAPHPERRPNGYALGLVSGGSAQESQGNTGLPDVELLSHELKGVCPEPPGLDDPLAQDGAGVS

OC[C@H]1O[C@@H](n2cnc3c(NC4CCCC4)ncnc32)[C@H](O)[C@@H]1O [CPA, N^6-cyclopentyladenosine]
effect of agonist on isosmotic volume of NPE cells ([1]; 30 nM and 1 μM (data not shown, N=3)): no significant shrinkage
effect of agonist on isosmotic volume of NPE cells ([1]; agonist 100 nM): had little effect; also recorded: small slow effect of uncertain significance
effect of agonist on isosmotic volume of NPE cells ([1]; agonist 3 μM): none at all; also recorded: no significant shrinkage

CCC(=O)O[C@@H]1[C@H](OC(=O)CC)[C@@H](C(=O)NC)O[C@H]1n1cnc2c(NCc3cccc(I)c3)nc(Cl)nc21 [MRS-3823]
Δ(IOP) Pneumotonometer (mouse IOP [2]): +0.2 ± 0.8 mm Hg

CNC(=O)[C@H]1O[C@@H](n2cnc3c(NCc4cccc(I)c4)nc(Cl)nc32)[C@H](O)[C@@H]1O [Cl-IB-MECA]
shrinkage of HCE cells ([1]; in the presence of gramicidin, concentration not given): produced shrinkage of HCE cells
increase in IOP over baseline (mouse IOP [3]; SNMS, after 10 min, adenosine 10 mM, Cl-IB-MECA 200 nM droplet): 10.0±2.9 mmHg
Δ(IOP) Servo-Null (mouse IOP [3]; topical droplet 200 nM (1% DMSO), endpoint 10 min): +10.0 ± 2.9 mm Hg
effect on mouse IOP measured non-invasively (in words) (mouse IOP [2]; pneumotonometry, topical, MRS-3833 at 200 nM): produced no significant increase in IOP
Δ(IOP) Pneumotonometer (mouse IOP [2]): +0.7 ± 1.4 mm Hg

CCNC(=O)[C@H]1O[C@@H](n2cnc3c(N)nc(NCCc4ccc(CCC(=O)O)cc4)nc32)[C@H](O)[C@@H]1O [CGS-21680]
effect of agonist on isosmotic volume of NPE cells ([1]; agonist 100 nM): exerted no effect; also recorded: no detectable effect
effect of agonist on isosmotic volume of NPE cells ([1]; agonist 3 μM): triggered isosmotic shrinkage; also recorded: did trigger isosmotic shrinkage

O=C1NCCC12O[C@@H](n1cnc3c(NCc4cccc(I)c4)ncnc31)[C@H](O)[C@@H]2O (stereo partly drawn) [MRS-1292]
time of maximum reduction in IOP, mean (mouse IOP [4]; 25 μM): 15 ± 1 min
maximum reduction in IOP (mouse IOP [4]; droplets containing 25 μM): 4.4±0.8 mm Hg
time constant (τ) of the adenosine-triggered shrinkage in the presence of MRS-1292 (cultured human NPE cells; 10 μM adenosine plus MRS-1292): 11.7 ± 2.6 min
Δv∞ steady-state shrinkage (cultured human NPE cells; 10 μM adenosine, 2 min pretreatment with MRS-1292, gramicidin, 60 min study): 1.9±0.2%

3-ethyl 5-benzyl-2-methyl-6-phenyl-4-styryl-1,4-(±)-dihydropyridine-3,5-dicarboxylate [MRS-1097]
Ki (human A2A receptors): 4.77 µM

C[N+](C)(C)CCOC(N)=O [carbachol]
effect on pupil size (pupil size; 4 mM droplet, with or without corneal impalement (n=2)): had no effect on pupil size
reduction of the pupil diameter (pupil size; 40 mM droplet, 10 min, cornea impaled with micropipette): 38%
contraction of the pupil diameter (pupil size; 40 mM droplet, 10 min, cornea impaled, baseline 2.00±0.15 mm): 0.76±0.09 mm
change (increase) of pupil diameter (pupil size; 40 mM droplet, 10 min, eye not punctured, baseline 1.80±0.11): 0.12±0.17 mm

CCOC(=O)c1c(CC)c(C(=O)SCC)c(CC)[n+](C)c1-c1ccccc1.[I-] [MRS-1649, 2,4-diethyl-1-methyl-3-(ethylsulfanylcarbonyl)-5-ethyloxycarbonyl-6-phenylpyridium iodide]
effect on IOP in the mouse (in words) (mouse IOP [3]; tested by the inventors, technique not given): found to lower IOP in the mouse
